Reference: patent US7419969B2 (Bristol-Myers Squibb Company, priority 2004, dated 2008)

These molecules were tested against T1, HIV-integrase (Human immunodeficiency virus type 1 group M subtype B, UniProt P04585) (assay: in-vitro activity against HIV-integrase (HIV Integrase Inhibition, SPA bead assay)). Details: Table 1; recombinant integrase, activity class.
T1 construct: Recombinant integrase (0.26 ng) was incubated with the beads
Type: biochemical
Outline: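 Recombinant integrase (0.26 ng) pre-bound for 90 min at 37 °C to biotinylated substrate DNA on streptavidin SPA beads, then washed. Inhibitors added with 33P-labelled target DNA; reaction stopped with 10 mM EDTA. Scintillation CPM taken as integration signal.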

First: Cc1ccc(CNC(=O)c2nc3n(c(=O)c2O)CCCC32CCC2)cc1F [Example 73, N-[(3-fluoro-4-methylphenyl)methyl]-7′,8′-dihydro-3′-hydroxy-4′-oxo-spiro[cyclobutane-1,9′(6′H)-[4H]pyrido[1,2-α]pyrimidine]-2′-carboxamide]
Second: O=C(NCc1cc(F)ccc1F)c1nc2n(c(=O)c1O)CCCC21CCC1 [Example 75, N-[(2,5-difluorophenyl)methyl]-7′,8′-dihydro-3′-hydroxy-4′-oxo-spiro[cyclobutane-1,9′(6′H)-[4H]pyrido[1,2-α]pyrimidine]-2′-carboxamide]
The IC50 of the first is lower: 1 to 10 nM for the first, 10 to 100 nM for the second.

First: CC(NC(=O)c1nc2n(c(=O)c1O)CCCC21CCC1)c1ccc(F)cc1 (stereo not drawn) [Example 74, N-[1-(4-fluorophenyl)ethyl]-7′,8′-dihydro-3′-hydroxy-4′-oxo-spiro[cyclobutane-1,9′(6′H)-[4H]pyrido[1,2-α]pyrimidine]-2′-carboxamide]
Second: O=C(NCc1ccc(F)cc1)c1nc2n(c(=O)c1O)CCC21CCCC1 [Example 84, N-[(4-fluorophenyl)methyl]-6′,7′-dihydro-3′-hydroxy-4′-oxo-spiro[cyclopentane-1,8′(4′H)-pyrrole[1,2-α]pyrimidine]-2′-carboxamide]
The IC50 of the first is higher: 10 to 100 nM for the first, 1 to 10 nM for the second. The second is the more potent here.

O=C(NCc1cc(Cl)ccc1Cl)c1nc2n(c(=O)c1O)CCCC21CCC1 [Example 76, N-[(2,5-dichlorophenyl)methyl]-7′,8′-dihydro-3′-hydroxy-4′-oxo-spiro[cyclobutane-1,9′(6′H)-[4H]pyrido[1,2-α]pyrimidine]-2′-carboxamide] and CS(=O)(=O)c1cc(F)ccc1CNC(=O)c1nc2n(c(=O)c1O)CCCC21CCC1 [Example 81, N-[[4-fluoro-2-(methylsulfonyl)phenyl]methyl]-7′,8′-dihydro-3′-hydroxy-4′-oxo-spiro[cyclobutane-1,9′(6′H)-[4H]pyrido[1,2-α]pyrimidine]-2′-carboxamide] fall in the same range of IC50: 1 to 10 nM for the first, 1 to 10 nM for the second.

O=C(NCc1cc(F)ccc1-n1cncn1)c1nc2n(c(=O)c1O)CCCC21CCC1 [Example 77, N-[[5-fluoro-2-(1H-1,2,4-triazol-1-yl)phenyl]methyl]-7′,8′-dihydro-3′-hydroxy-4′-oxo-spiro[cyclobutane-1,9′(6′H)-[4H]pyrido[1,2-α]pyrimidine]-2′-carboxamide] and O=C(NCc1ccc(F)cc1-n1cncn1)c1nc2n(c(=O)c1O)CCCC21CCC1 [Example 78, N-[[4-fluoro-2-(1H-1,2,4-triazol-1-yl)phenyl]methyl]-7′,8′-dihydro-3′-hydroxy-4′-oxo-spiro[cyclobutane-1,9′(6^1′H)-[4H]pyrido[1,2-α]pyrimidine]-2′-carboxamide] fall in the same range of IC50: 1 to 10 nM for the first, 1 to 10 nM for the second.

Compared with O=C(NCc1ccc(F)cc1N1CCCCS1(=O)=O)c1nc2n(c(=O)c1O)CCCC21CCC1 [Example 79, N-[[4-fluoro-2-(tetrahydro-1,1-dioxido-2H-1,2-thiazin-2-yl)phenyl]methyl]-7′,8′-dihydro-3′-hydroxy-4′-oxo-spiro[cyclobutane-1,9′(6′H)-[4H]pyrido[1,2-α]pyrimidine]-2′-carboxamide], O=C(NCc1ccccc1N1CCCCS1(=O)=O)c1nc2n(c(=O)c1O)CCCC21CCC1 [Example 83, 7′,8′-dihydro-3′-hydroxy-4′-oxo-N-[[2-(tetrahydro-1,1-dioxido-2H-1,2-thiazin-2-yl)phenyl]methyl]-spiro[cyclobutane-1,9′(6′H)-[4H]pyrido[1,2-α]pyrimidine]-2′-carboxamide] is higher in IC50: 1 to 10 nM for the first, 10 to 100 nM for the second. The first is the more potent here.

O=C(NCc1ccccc1-n1cncn1)c1nc2n(c(=O)c1O)CCCC21CCC1 [Example 80, N-[[2-(1H-1,2,4-triazol-1-yl)phenyl]methyl]-7′,8′-dihydro-3′-hydroxy-4′-oxo-spiro[cyclobutane-1,9′(6′H)-[4H]pyrido[1,2-α]pyrimidine]-2′-carboxamide] and O=C(NCc1ccc(F)cc1-n1cncn1)c1nc2n(c(=O)c1O)CCC21CCCC1 [Example 87, N-[[4-fluoro-2-(1H-1,2,4-triazol-1-yl)phenyl]methyl]-6′,7′-dihydro-3′-hydroxy-4′-oxo-spiro[cyclopentane-1,8′(4′H)-pyrrolo[1,2-α]pyrimidine]-2′-carboxamide] fall in the same range of IC50: 1 to 10 nM for the first, 1 to 10 nM for the second.

Compared with CN(C)S(=O)(=O)c1cc(F)ccc1CNC(=O)c1nc2n(c(=O)c1O)CCCC21CCC1 [Example 82, N-[[2-[(dimethylamino)sulfonyl]-4-fluorophenyl]methyl]-7′,8′-dihydro-3′-hydroxy-4′-oxo-spiro[cyclobutane-1,9′(6′H)-[4H]pyrido[1,2-α]pyrimidine]-2′-carboxamide], CN(C)S(=O)(=O)c1cc(F)ccc1CNC(=O)c1nc2n(c(=O)c1O)CCC21CCCC1 [Example 86, N-[[2-[(dimethylamino)sulfonyl]-4-fluorophenyl]methyl]-6′,7′-dihydro-3′-hydroxy-4′-oxo-spiro[cyclopentane-1,8′(4′H)-pyrrolo[1,2-α]pyrimidine]-2′-carboxamide] is higher in IC50: 1 to 10 nM for the first, 10 to 100 nM for the second.

CS(=O)(=O)c1cc(F)ccc1CNC(=O)c1nc2n(c(=O)c1O)CCC21CCCC1 [Example 85, N-[[4-fluoro-2-(methylsulfonyl)phenyl]methyl]-6′,7′-dihydro-3′-hydroxy-4′-oxo-spiro[cyclopentane-1,8′(4′H)-pyrrolo[1,2-α]pyrimidine]-2′-carboxamide] and CS(=O)(=O)c1cc(F)ccc1CNC(=O)c1nc2n(c(=O)c1O)CCOC21CCCC1 [Example 89, N-[[4-fluoro-2-(methylsulfonyl)phenyl]methyl]-6′,7′-dihydro-3′-hydroxy-4′-oxo-spiro[cyclopentane-1,9′(4′H)-pyrimido[2,1-c][1,4]oxazine]-2′-carboxamide] fall in the same range of IC50: 1 to 10 nM for the first, 1 to 10 nM for the second.

Compared with O=C(NCc1ccc(F)cc1)c1nc2n(c(=O)c1O)CCOC21CCNCC1 [Example 88, N-[(4-fluorophenyl)methyl]-6′,7′-dihydro-3′-hydroxy-4′-oxo-spiro[piperidine-4,9′(4′H)-pyrimido[2,1-c][1,4]oxazine]-2′-carboxamide], CNC(=O)c1cc(F)ccc1CNC(=O)c1nc2n(c(=O)c1O)CCOC21CCC1 [Example 91, N-[[4-fluoro-2-[(methylamino)carbonyl]phenyl]methyl]-6′,7′-dihydro-3′-hydroxy-4′-oxo-spiro[cyclobutane-1,9′(4′H)-pyrimido[2,1-c][1,4]oxazine]-2′-carboxamide] is lower in IC50: 10 to 100 nM for the first, 1 to 10 nM for the second.

CS(=O)(=O)c1cc(F)ccc1CNC(=O)c1nc2n(c(=O)c1O)CCOC21CCOC1 (stereo not shown) [Example 90, N-[[4-fluoro-2-(methylsulfonyl)phenyl]methyl]-4,5,6′,7′-tetrahydro-3′-hydroxy-4′-oxo-spiro[furan-3(2H),9′(4′H)-pyrimido[2,1-c][1,4]oxazine]-2′-carboxamide] showed an IC50 of 10 to 100 nM.

Same assay, conditions: Table 1a; recombinant integrase, activity class

CN1CCn2c(nc(C(=O)NCc3ccc(F)cc3)c(O)c2=O)C12CCCC2 [Example 92, Spiro[cyclopentane-1,9′(6′H)-[4H]pyrazino[1,2-a]pyrimidine]-2′-carboxamide, N-[(4-fluorophenyl)methyl]-7′,8′-dihydro-3′-hydroxy-8′-methyl-4′-oxo-] and CN1CCn2c(nc(C(=O)NCc3ccc(F)cc3)c(O)c2=O)C12CCCCC2 [Example 95, Spiro[cyclohexane-1,9′(6′H)-[4H]pyrazino[1,2-a]pyrimidine]-2′-carboxamide, N-[(4-fluorophenyl)methyl]-7′,8′-dihydro-3′-hydroxy-8′-methyl-4′-oxo-] fall in the same range of IC50: 1 to 10 nM for the first, 1 to 10 nM for the second.

CN1CCn2c(nc(C(=O)NCc3ccc(F)cc3-n3cncn3)c(O)c2=O)C12CCCC2 [Example 93, Spiro[cyclopentane-1,9′(6′H)-[4H]pyrazino[1,2-a]pyrimidine]-2′-carboxamide, N-[[4-fluoro-2-(1H-1,2,4-triazol-1-yl)phenyl]methyl]-7′,8′-dihydro-3′-hydroxy-8′-methyl-4′-oxo-] and CN1CCn2c(nc(C(=O)NCc3ccc(F)cc3-n3cncn3)c(O)c2=O)C12CCCCC2 [Example 96, Spiro[cyclohexane-1,9′(6′H)-[4H]pyrazino[1,2-a]pyrimidine]-2′-carboxamide, N-[[4-fluoro-2-(1H-1,2,4-triazol-1-yl)phenyl]methyl]-7′,8′-dihydro-3′-hydroxy-8′-methyl-4′-oxo-] fall in the same range of IC50: 1 to 10 nM for the first, 1 to 10 nM for the second.

Cc1ncnn1-c1cc(F)ccc1CNC(=O)c1nc2n(c(=O)c1O)CCN(C)C21CCCC1 [Example 94, Spiro[cyclopentane-1,9′(6′H)-[4H]pyrazino[1,2-a]pyrimidine]-2′-carboxamide, N-[[4-fluoro-2-(5-methyl-1H-1,2,4-triazol-1-yl)phenyl]methyl]-7′,8′-dihydro-3′-hydroxy-8′-methyl-4′-oxo-] and Cc1ncnn1-c1cc(F)ccc1CNC(=O)c1nc2n(c(=O)c1O)CCN(C)C21CCCCC1 [Example 97, Spiro[cyclohexane-1,9′(6′H)-[4H]pyrazino[1,2-a]pyrimidine]-2′-carboxamide, N-[[4-fluoro-2-(5-methyl-1H-1,2,4-triazol-1-yl)phenyl]methyl]-7′,8′-dihydro-3′-hydroxy-8′-methyl-4′-oxo-] fall in the same range of IC50: 10 to 100 nM for the first, 10 to 100 nM for the second.

CN1CCn2c(nc(C(=O)NCc3ccc(F)cc3)c(O)c2=O)C12CCC2 [Example 98, Spiro[cyclobutane-1,9′(6′H)-[4H]pyrazino[1,2-a]pyrimidine]-2′-carboxamide, N-[(4-fluorophenyl)methyl]-7′,8′-dihydro-3′-hydroxy-8′-methyl-4′-oxo-] and CN1CCn2c(nc(C(=O)NCc3ccc(F)cc3-n3cncn3)c(O)c2=O)C12CCC2 [Example 99, Spiro[cyclobutane-1,9′(6′H)-[4H]pyrazino[1,2-a]pyrimidine]-2′-carboxamide, N-[[4-fluoro-2-(1H-1,2,4-triazol-1-yl)phenyl]methyl]-7′,8′-dihydro-3′-hydroxy-8′-methyl-4′-oxo-] fall in the same range of IC50: 1 to 10 nM for the first, 1 to 10 nM for the second.

Work on Cc1ncnn1-c1cc(F)ccc1CNC(=O)c1nc2n(c(=O)c1O)CCN(C)C21CCC1 [Example 100, Spiro[cyclobutane-1,9′(6′H)-[4H]pyrazino[1,2-a]pyrimidine]-2′-carboxamide, N-[[4-fluoro-2-(5-methyl-1H-1,2,4-triazol-1-yl)phenyl]methyl]-7′,8′-dihydro-3′-hydroxy-8′-methyl-4′-oxo-] yielded an IC50 of 10 to 100 nM.
